{
  "source": "patent US20200179426A1",
  "about": "“METHODS OF USE FOR OENOTHEIN A AND B FROM EPILOBIUM SPECIES” (EPILOBIUM, INC., priority 2017, published 2020)",
  "key": {"[1]": {"test_system": "hen's-egg chorioallantoic membrane (CAM)", "test": "hen's-egg chorioallantoic membrane (CAM) irritation model with 15% lactic acid as standard irritant", "details": "oenothein B extract at 1% (weight to volume) dilution; applied before the irritant (15% lactic acid), simulating prophylactic use", "method": "In the hen's-egg chorioallantoic membrane (CAM) model, in which the CAM is treated with 15% lactic acid as a standard irritant, the development of manifestations of membrane irritation were tracked and scored according to published methods for assessing irritancy. A sample of the oenothein B extract from Canadian Willow herb described in Example 1 was tested at a 1% (weight to volume) dilution for activity in the CAM model."}, "[2]": {"test": "xanthine oxidase/acetaldehyde spectrophotometric free radical scavenging assay", "assay_type": "biochemical", "method": "The scavenging of free super oxide radicals is quantitated spectrometrically and expressed in terms of percentage of radicals scavenged. Assays were performed with 1% (w/v) and 0.1% (w/v) dilutions of the dried extract, which yielded up to 100% scavenging activity and up to 99% scavenging activity respectively."}},
  "data": [
    {"substance": "oenothein B", "values": [
      {"measurement": "decrease in irritation", "setting": "[1]", "value": "up to 70%"},
      {"measurement": "scavenging activity (percentage of superoxide radicals scavenged)", "setting": "[2]; 0.1% (w/v) dilution of the dried extract", "value": "up to 99%"},
      {"measurement": "scavenging activity (percentage of superoxide radicals scavenged)", "setting": "[2]; 1% (w/v) dilution of the dried extract", "value": "up to 100%"}
    ]}
  ]
}
